Experiment [1] is described as follows: Competitive inhibition of Sporosarcina pasteurii CCM 2056 urease using varying levels of urea as substrate pretreated for 60 mins followed by substrate addition after 10 mins by Lineweaver-Burk plot analysis.
A short description of experiment [2]: Competitive inhibition of Sporosarcina pasteurii CCM 2056 urease using varying levels of urea as substrate after 10 mins by Lineweaver-Burk plot analysis.
Experiment [3] can be described thus: Inhibition of Sporosarcina pasteurii CCM 2056 urease using urea as substrate after 15 mins by phenol-hypochlorite reagent based colorimetric method.
Experiment [4] can be described thus: Inhibition of Sporosarcina pasteurii CCM 2056 urease using urea as substrate pretreated for 60 mins followed by substrate addition after 15 mins by phenol-hypochlorite reagent based colorimetric method.
Experiment [5] deals with Sporosarcina pasteurii. Kind of experiment: Inhibition of Sporosarcina pasteurii CCM 2056 urease up to 2 mM using urea as substrate pretreated for 60 mins followed by substrate addition after 15 mins by phenol-hypochlorite reagent based colorimetric method.
Experiment [6] concerns Sporosarcina pasteurii. Kind of experiment: Ratio of Kinact to Ki for Sporosarcina pasteurii CCM 2056 urease.
Experiment [7] in a line: Irreversible inhibition of Sporosarcina pasteurii CCM 2056 urease assessed as reduction in ammonia production using urea as substrate measured for 120 mins by Berthelot colorimetric assay.
Experiment [8] in a line: Irreversible inhibition of Sporosarcina pasteurii CCM 2056 urease assessed as reduction in ammonia production using urea as substrate pretreated for 60 mins followed by substrate addition measured for 120 mins by Berthelot colorimetric assay.
For experiment [9], the system named is Sporosarcina pasteurii. In words: Potency index, ratio of Methyl (Z)-2-{[hydrogen(hydroxy)phosphoryl]methyl}-3-phenylpropenoate Ki to compound Ki for competitive inhibition of Sporosarcina pasteurii CCM 2056 urease using varying levels of urea as substrate pretreated for 60 mins followed by substrate addition measured after 10 mins.
The nature of experiment [10]: Slow-binding inhibition of Sporosarcina pasteurii CCM 2056 urease using varying levels of urea as substrate pretreated for 60 mins followed by substrate addition after 120 mins by phenol-hypochlorite reagent based colorimetric method.
A short description of experiment [11]: Slow-binding inhibition of Sporosarcina pasteurii CCM 2056 urease using varying levels of urea as substrate after 120 mins by phenol-hypochlorite reagent based colorimetric method.
A short description of experiment [12]: Inhibition of Proteus mirabilis urease.

Each structure is given as a SMILES string. Calls of active or inactive are those of the source. The calls are words filed in the database; no cut-off is given here.

In general, Ki refers to the dissociation constant of the complex between target and ligand, obtained from inhibition or displacement. The IC50 is the midpoint of a concentration-inhibition curve.

In the case of `COc1ccc(/C=C(\CP(=O)(O)O)C(=O)O)cc1`, the Ki was found to be 34.4 µM in [1] and 28.9 µM in experiment [2].
On to `COC(=O)/C(=C/c1ccc(C)cc1)CP(=O)(O)O`, for which the Ki was 20.7 µM in experiment [1] and 21.4 µM in experiment [2].
Take `COC(=O)/C(=C/c1ccc(OC)cc1)CCP(=O)(O)O`: the Ki worked out at 292 µM in experiment [1] and 327 µM in [2].
Turning to `NCP(=O)(O)C/C(=C\c1ccccc1)C(=O)O`, the 50% inhibitory concentration (IC50) was 1510 µM in experiment [3] and 1340 µM in [4]. Also, the Ki was found to be 1320 µM in [1] and 1420 µM in [2].
As to `COC(=O)/C(=C/c1ccc(OC)cc1)CP(=O)(O)O`, the Ki in [1] turned out to be 229 µM; in experiment [2], 239 µM.
In the case of `COC(=O)/C(=C/c1ccc(NC(C)=O)cc1)CP(=O)(O)O`, the inhibition constant (Ki) turned out to be 386 µM in [1] and 404 µM in [2].
For the compound `COC(=O)/C(=C/c1ccccc1)CP(C)(=O)O`, the inhibition entry in the experiment on Sporosarcina pasteurii [5] was “inactive”.
The same measure, in the same setting: to `CP(=O)(O)C/C(=C\c1ccccc1)C(=O)O` belongs “inactive”.
`O=C(O)/C(=C/c1ccccc1)CP(=O)(O)O`: the 50% inhibitory concentration (IC50) in experiment [3] was 44.5 µM; in [4], 27.8 µM. Also, the Ki was 13 to 13.1 µM in experiment [1] and 16.1 µM in experiment [2].
On to `C=C(C(=O)OC)C(OC(C)=O)c1ccc(OC)cc1` (configuration not stated), for which the Ratio with Sporosarcina pasteurii [6] was < 1 M⁻¹ s⁻¹. For the same compound, the IC50 in [7] is > 2000 µM; in experiment [8], 1240 µM.
Take `COC(=O)/C(=C/c1ccc(NC(C)=O)cc1)C[PH](=O)O`: the Ratio Ki in the experiment with Sporosarcina pasteurii [9] is 5 to 7. For the same compound, the Ki turned out to be 13.4 µM in experiment [1] and 20.6 µM in experiment [2].
Turning to `COC(=O)/C(=C/c1ccc([N+](=O)[O-])cc1)CCP(=O)(O)O`, the values for the inhibition constant (Ki) in experiment [10] and in experiment [11] were 362 µM and 54.1 µM, respectively.
`C=C(C(=O)OC)C(OC(C)=O)c1ccc(NC(C)=O)cc1` (configuration not stated): the Ratio in the experiment on Sporosarcina pasteurii [6] worked out at 2.78 M⁻¹ s⁻¹. Besides, the IC50 was > 1000 µM in [7] and 302 µM in experiment [8].
In the case of `Cc1ccc(/C=C(\CCP(=O)(O)O)C(=O)O)cc1`, the Ki in [1] came out at 66.7 µM.
On to `C=C(C(=O)OC)C(OC(C)=O)c1ccc(C)cc1` (configuration not stated), for which the Ratio in the experiment with Sporosarcina pasteurii [6] came to 5.62 M⁻¹ s⁻¹. Also, the IC50 in [7] is > 1000 µM; in [8], 331 µM.
On to `O=C(O)/C(=C/c1ccc(F)cc1)CP(=O)(O)O`, for which the Ki in experiment [1] came to 9.79 µM; in [2] it was 13.4 µM.
`COC(=O)/C(=C/c1ccc(Cl)cc1)C[PH](=O)O`: the Ratio Ki with Sporosarcina pasteurii [9] lay within 5 to 7. Moreover, the Ki in experiment [1] amounted to 16.7 µM; in experiment [2], 24 µM.
For `COC(=O)/C(=C/c1ccc(Cl)cc1)CP(=O)(O)O`, the values for the Ki in experiment [1] and in experiment [2] were 81.2 µM and 88.9 µM, respectively.
Take `C=C(C(=O)OC)C(OC(C)=O)c1ccc([N+](=O)[O-])cc1` (configuration not stated): the Ratio with Sporosarcina pasteurii [6] was determined as 2.34 M⁻¹ s⁻¹. Also, the IC50 is 679 µM in experiment [7] and 224 µM in experiment [8].
For the compound `COC(=O)/C(=C/c1ccc(F)cc1)CCP(=O)(O)O`, the Ki came to 47.4 µM in experiment [1] and 48.4 µM in experiment [2].
In the case of `O=C(O)/C(=C/c1ccccc1)CP(=O)(O)CO`, the inhibition result in the experiment on Sporosarcina pasteurii [5] was “inactive”.
Consider `COC(=O)/C(=C/c1ccc(F)cc1)CP(=O)(O)O`, for which the Ki in [1] worked out at 62.9 µM; in experiment [2], 73.2 µM.
For `Cc1ccc(/C=C(\C[PH](=O)O)C(=O)O)cc1`, the Ki in experiment [1] is 23.4 µM.
As for `O=C(O)/C(=C/c1ccccc1)C[PH](=O)O`, the values for the IC50 in experiment [3] and in experiment [4] were 344 µM and 234 µM, respectively. Moreover, the Ki in experiment [1] is 117 µM; in experiment [2], 208 µM.
On to `COC(=O)/C(=C/c1ccc(C)cc1)C[PH](=O)O`, for which, in the experiment with Sporosarcina pasteurii [9], the Ratio Ki was 5 to 7. Besides, the values for the Ki in experiment [1] and in experiment [2] were 23.4 µM and 41.6 µM, respectively.
Turning to `O=C(O)/C(=C/c1ccc([N+](=O)[O-])cc1)CCP(=O)(O)O`, the Ki stood at 433 µM in experiment [10] and 59.9 µM in experiment [11].
For `O=C(O)/C(=C/c1ccc(Cl)cc1)CP(=O)(O)O`, the Ki came out at 16.2 µM in [1] and 19.6 µM in [2].
Turning to `Cc1ccc(/C=C(\CP(=O)(O)O)C(=O)O)cc1`, the results for the Ki in experiment [12], in experiment [1] and in experiment [2] were 0.485 µM, 0.594 µM and 0.674 µM, respectively.
For `O=C(O)/C(=C/c1ccc(F)cc1)CCP(=O)(O)O`, the results for the Ki in [1] and in [2] were 27.9 µM and 32.3 µM, respectively.
As for `C=C(C(=O)OC)C(OC(C)=O)c1ccc(Cl)cc1` (configuration not stated), the Ratio in the experiment on Sporosarcina pasteurii [6] was found to be 75.3 M⁻¹ s⁻¹. The IC50 was 53.2 µM in experiment [7] and 17.7 µM in experiment [8].
Take `O=C(O)/C(=C/c1ccccc1)CCP(=O)(O)O`: the IC50 in experiment [3] turned out to be 83.4 µM; in experiment [4] it was 48.4 µM. Moreover, the results for the Ki in experiment [1] and in experiment [2] were 66.7 µM and 55.6 µM, respectively.
On to `COC(=O)/C(=C/c1ccccc1)CP(=O)(O)CN`, for which the inhibition entry in the experiment with Sporosarcina pasteurii [5] was “inactive”.
In the case of `C=C(C(=O)OC)C(OC(C)=O)c1ccc(F)cc1` (configuration not stated), the Ratio in the experiment on Sporosarcina pasteurii [6] worked out at 525 M⁻¹ s⁻¹. Besides, the IC50 turned out to be 64.2 µM in [7] and 4.15 µM in [8].
As for `COC(=O)/C(=C/c1ccccc1)CP(=O)(O)O`, the inhibition result in the experiment with Sporosarcina pasteurii [5] was “inactive”.
As to `C=C(C(=O)OC)C(OC(C)=O)c1ccccc1` (configuration not stated), the Ratio with Sporosarcina pasteurii [6] is < 1 M⁻¹ s⁻¹. Besides, the IC50 in experiment [7] is > 1000 µM; in experiment [8] it was 870 µM.
In the case of `COC(=O)/C(=C/c1ccccc1)C[PH](=O)O`, the IC50 turned out to be 201 µM in experiment [3] and 104 µM in experiment [4]. Moreover, the Ki in experiment [1] was 97.5 µM; in [2], 177 µM.
`COC(=O)/C(=C/c1ccc(OC)cc1)C[PH](=O)O`: the Ki in experiment [1] was found to be 149 µM; in [2], 157 µM.
With `COC(=O)/C(=C/c1ccc(F)cc1)C[PH](=O)O`, the Ratio Ki in the experiment with Sporosarcina pasteurii [9] was 5 to 7. Moreover, the figures for the Ki in experiment [1] and in experiment [2] were 14.5 µM and 17.9 µM, respectively.
In the case of `Cc1ccc(CC(CP(=O)(O)O)C(=O)O)cc1` (configuration not stated), the Ki was 90.2 µM in [1] and 88 µM in experiment [2].
In the case of `COC(=O)/C(=C/c1ccccc1)CP(=O)(O)CO`, the IC50 was found to be 465 µM in experiment [3] and 309 µM in [4]. For the same compound, the Ki in experiment [1] came out at 293 µM; in experiment [2] it was 327 µM.
Take `COC(=O)/C(=C/c1ccccc1)CCP(=O)(O)O`: the IC50 in experiment [3] was 4.28 µM; in [4], 4.18 µM. Besides, the Ki in experiment [12] was determined as 1.52 µM; in experiment [1], 3.05 µM; in [2], 3.67 µM.

(Values after ChEMBL document CHEMBL4033625, “Novel organophosphorus scaffolds of urease inhibitors obtained by substitution of Morita-Baylis-Hillman adducts with phosphorus nucleophiles” (Eur J Med Chem, 2017).)
